Source: US20240140931A1, “TRICYCLIC COMPOUNDS AND USES THEREOF” (HUTCHMED LIMITED, priority 2021, published 2024)

How the values were obtained:
[1] = molecular target: Human full-length SHP2 recombinant protein (Homo sapiens (Human), UniProt Q06124); test: Assay of full-length SHP2 phosphatase activity; type: biochemical; conditions: DiFMUP substrate, with activating peptide
Procedure, shortened: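 Readout: DiFMUP hydrolysis fluorescence (355/460 nm) after 60 min at 25 °C, following 30 min RT preincubation of compound with peptide-activated full-length human SHP2. Controls were 1% DMSO with or without enzyme; IC50 by four-parameter logistic fit.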

[2] = tested on: pERK1/2 (Thr202/Tyr204) in Miapaca2 cells; test: Assay of intracellular pERK1/2 (Thr202/Tyr204) phosphorylation; type: cell-based; conditions: pERK1/2 (Thr202/Tyr204) HTRF
Procedure, shortened: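 HTRF read-out (665/615 nm) of phospho-ERK1/2 Thr202/Tyr204 in lysates from Miapaca2 cells exposed for 2 h to 3-fold compound dilutions at 0.5% final DMSO. Controls: lysis buffer without cells and DMSO-treated cells; IC50 from four-parameter logistic fit.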

Miapaca2 3D spheroids = test: Assay of cell proliferation on Miapaca2 3D spheroids; type: cell-based; conditions: CellTiter-Glo 3D, 5 days treatment
Description: Example 4 Assay of Cell Proliferation on Miapaca2 3D Spheroids
1. Reagents and Materials • CellTiter-Glo® 3D Cell Viability Assay Kit: Promega, Cat #G9683; • CellCarrier Spheroid ULA 96-well plate: Corning, Cat #4515; • Instrument: Envision, Perkinelmer; • Cell line: Miapaca2, ATCC, Cat #CRL-1420.
2. Preparation of Reaction Solutions • The test compound was dissolved in DMSO and diluted with DMSO to 3000.0 μM, and the compound was further 3-fold diluted with DMSO to: 1000.0, 333.3, 111.1, 37.0, 12.3, 4.1, and 1.4 μM. Then 2 μL of the compound at different dilution concentrations was added to 198 μL of a 1640 medium to prepare a 10× test compound, wherein DMSO was at the concentration of 1% (DMSO was at the final concentration of 0.1%).
3. Experimental Methods • Day0: Digest cells and count cell numbers. Miapaca2 cells were inoculated into a spheroid ULA 96-well plate at a density of 300 cells/well at 100 μL/well and cultured in a cell incubator at 5% CO2 and 37° C. • Day2: The cell spheroids formed at day2. Add 10 μL of 10× test compounds to the 96-well plate. To the cell positive control well was added 10 μL of 1% DMSO 1640 medium. Incubate the cell spheroids in a cell incubator at 5% CO2 and 37° C. for additional 5 days. • Cell viability assay: Add 50 μL of CellTiter-Glo reagent to each well, place the plate in a microplate shaker, and lysis under shaking at 900 rpm at room temperature for 5 minutes. Then incubate the plate at room temperature in the dark for 30 minutes. • The luminescene of each well was detected on Envision2104.
Cell Survial %=(Lum(d7 treatment)−Lum(d2 cell))/(Lum(d7 cell)−Lum(d2 cell))×100
Wherein: • Lum(d7 treatment) refers to the luminescene of the test compound treated cells on day7; • Lum(d2 cell) refers to the luminescene of the 0.1% DMSO treated Miapaca2 cells on day2; • Lum(d7 cell) refers to the luminescene of the 0.1% DMSO treated Miapaca2 cells on day7. • IC50 values were calculated following formula 205: y=A+((B−A)/(1+((C/X)^D))), by using the XL-Fit 5.0 software.

[3] = Homo sapiens, MIA PaCa-2, 120 h

Sequence of Human full-length SHP2 recombinant protein (Q06124 whole entry): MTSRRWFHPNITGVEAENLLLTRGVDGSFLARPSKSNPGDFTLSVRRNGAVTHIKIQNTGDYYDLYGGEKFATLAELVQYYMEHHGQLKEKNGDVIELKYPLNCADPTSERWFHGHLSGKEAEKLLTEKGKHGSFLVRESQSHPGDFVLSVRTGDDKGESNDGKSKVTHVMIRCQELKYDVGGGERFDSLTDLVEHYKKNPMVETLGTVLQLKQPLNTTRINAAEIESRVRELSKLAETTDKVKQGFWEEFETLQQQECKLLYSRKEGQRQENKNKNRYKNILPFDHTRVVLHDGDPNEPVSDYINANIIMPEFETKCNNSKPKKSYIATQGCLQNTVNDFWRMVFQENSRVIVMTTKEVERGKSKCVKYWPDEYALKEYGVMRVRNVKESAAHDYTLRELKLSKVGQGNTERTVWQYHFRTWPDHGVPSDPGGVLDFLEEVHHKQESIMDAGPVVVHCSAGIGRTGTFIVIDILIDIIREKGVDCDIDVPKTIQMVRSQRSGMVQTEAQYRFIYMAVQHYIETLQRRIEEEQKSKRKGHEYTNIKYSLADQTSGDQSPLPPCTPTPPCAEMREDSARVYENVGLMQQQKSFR

C#Cc1ccc2c(c1)[C@@H](N)C1(CCN(c3nc(C)n(-c4cccc(Cl)c4Cl)c(=O)c3F)CC1)C2 [Compound 165]
IC50 [1]: 6 nM | IC50 ([2]; Homo sapiens, MIA PaCa-2, 2 h): 39 nM | IC50 (Miapaca2 3D spheroids; [3]): 71 nM

COCC#Cc1cc(F)c2c(c1)[C@@H](N)C1(CCN(c3cc(=O)n(-c4cccc(Cl)c4Cl)c(C)n3)CC1)C2 [Compound 166]
IC50 [1]: 6 nM | IC50 ([2]; Homo sapiens, MIA PaCa-2, 2 h): 38 nM | IC50 (Miapaca2 3D spheroids; [3]): 110 nM

C#Cc1cc(F)c2c(c1)[C@@H](N)C1(CCN(c3nc(C)n(-c4cccc(Cl)c4Cl)c(=O)c3C)CC1)C2 [Compound 168]
IC50 [1]: 10 nM | IC50 ([2]; Homo sapiens, MIA PaCa-2, 2 h): 34 nM | IC50 (Miapaca2 3D spheroids; [3]): 77 nM

CC#Cc1ccc2c(c1)[C@@H](N)C1(CCN(c3nc(C)n(-c4cccc(Cl)c4Cl)c(=O)c3F)CC1)C2 [Compound 170]
IC50 [1]: 9 nM | IC50 ([2]; Homo sapiens, MIA PaCa-2, 2 h): 143 nM | IC50 (Miapaca2 3D spheroids; [3]): 162 nM

COCC#Cc1cc(F)c2c(c1)[C@@H](N)C1(CCN(c3ncc(Sc4ccnc(N)n4)c4nccn34)CC1)C2 [Compound 171]
IC50 [1]: 6 nM | IC50 ([2]; Homo sapiens, MIA PaCa-2, 2 h): 38 nM | IC50 (Miapaca2 3D spheroids; [3]): 39 nM

CNC(=O)C#Cc1ccc2c(c1)[C@@H](N)C1(CCN(c3ncc(Sc4ccnc(N)c4Cl)c4nccn34)CC1)C2 [Compound 172]
IC50 [1]: 1 nM | IC50 ([2]; Homo sapiens, MIA PaCa-2, 2 h): 8 nM | IC50 (Miapaca2 3D spheroids; [3]): 9 nM

CNC(=O)C#Cc1ccc2c(c1)[C@@H](N)C1(CCN(c3cc(=O)n(-c4cccc(Cl)c4Cl)c(C)n3)CC1)C2 [Compound 173]
IC50 [1]: 1 nM | IC50 ([2]; Homo sapiens, MIA PaCa-2, 2 h): 18 nM | IC50 (Miapaca2 3D spheroids; [3]): 24 nM

CNC(=O)C#Cc1ccc2c(c1)[C@@H](N)C1(CCN(c3nc(C)n(-c4cccc(Cl)c4Cl)c(=O)c3C)CC1)C2 [Compound 174]
IC50 [1]: 6 nM | IC50 ([2]; Homo sapiens, MIA PaCa-2, 2 h): 33 nM | IC50 (Miapaca2 3D spheroids; [3]): 53 nM

COCC#Cc1cc(F)c2c(c1)[C@@H](N)C1(CCN(c3ncc(Sc4ccnc(C)n4)c4nccn34)CC1)C2 [Compound 175]
IC50 [1]: 14 nM | IC50 ([2]; Homo sapiens, MIA PaCa-2, 2 h): 122 nM | IC50 (Miapaca2 3D spheroids; [3]): 100 nM

C#Cc1cc(F)c2c(c1)[C@@H](N)C1(CCN(c3ncc(Sc4ccnc(N)c4Cl)n4nccc34)CC1)C2 [Compound 176]
IC50 [1]: 38 nM | IC50 ([2]; Homo sapiens, MIA PaCa-2, 2 h): 41 nM | IC50 (Miapaca2 3D spheroids; [3]): 97 nM

CNC(=O)C#Cc1ccc2c(c1)[C@@H](N)C1(CCN(c3ncc(Sc4ccnc(N)c4Cl)n4nccc34)CC1)C2 [Compound 177]
IC50 [1]: 2 nM | IC50 ([2]; Homo sapiens, MIA PaCa-2, 2 h): 7 nM | IC50 (Miapaca2 3D spheroids; [3]): 4 nM

C#Cc1ccc2c(c1)[C@@H](N)C1(CCN(c3ncc(Sc4ccnc(C)n4)n4nccc34)CC1)C2 [Compound 178]
IC50 [1]: 2 nM | IC50 ([2]; Homo sapiens, MIA PaCa-2, 2 h): 48 nM | IC50 (Miapaca2 3D spheroids; [3]): 41 nM

C#Cc1ccc2c(c1)[C@@H](N)C1(CCN(c3ncc(Sc4ccnc(N)c4Cl)n4ncnc34)CC1)C2 [Compound 179]
IC50 [1]: 4 nM | IC50 ([2]; Homo sapiens, MIA PaCa-2, 2 h): 112 nM | IC50 (Miapaca2 3D spheroids; [3]): 65 nM

C#Cc1ccc2c(c1)[C@@H](N)C1(CCN(c3cc(=O)n(-c4ccc(C#N)c(OC)c4Cl)c(C)n3)CC1)C2 [Compound 183]
IC50 [1]: 2 nM | IC50 ([2]; 2 hours): 50 nM | IC50 (Miapaca2 3D spheroids; [3]): 68 nM

C#Cc1ccc2c(c1)[C@@H](N)C1(CCN(c3cc(=O)n(-c4ccc(C#N)c(Cl)c4Cl)c(C)n3)CC1)C2 [Compound 184]
IC50 [1]: 3 nM | IC50 ([2]; 2 hours): 67 nM | IC50 (Miapaca2 3D spheroids; [3]): 96 nM

CNC(=O)C#Cc1ccc2c(c1)[C@@H](N)C1(CCN(c3nc(N)c(Sc4ccnc(N)c4Cl)nc3C)CC1)C2 [Compound 187]
IC50 [1]: 1 nM | IC50 ([2]; Homo sapiens, MIA PaCa-2, 2 h): 3 nM | IC50 (Miapaca2 3D spheroids; [3]): 3 nM

CNC(=O)C#Cc1ccc2c(c1)[C@@H](N)C1(CCN(c3nc(N)c(Sc4ccnc(OC)c4Cl)nc3C)CC1)C2 [Compound 188]
IC50 [1]: 5 nM | IC50 ([2]; Homo sapiens, MIA PaCa-2, 2 h): 14 nM | IC50 (Miapaca2 3D spheroids; [3]): 47 nM

CNC(=O)C#Cc1ccc2c(c1)[C@@H](N)C1(CCN(c3nc(N)c(Sc4ccnc(C)c4Cl)nc3C)CC1)C2 [Compound 189]
IC50 [1]: 1 nM | IC50 ([2]; Homo sapiens, MIA PaCa-2, 2 h): 7 nM | IC50 (Miapaca2 3D spheroids; [3]): 15 nM

Cc1nc(N2CCC3(CC2)Cc2ccc(C#CC(=O)N(C)C)cc2[C@H]3N)cc(=O)n1-c1cccc(Cl)c1Cl [Compound 194]
IC50 [1]: 1 nM | IC50 ([2]; Homo sapiens, MIA PaCa-2, 2 h): 18 nM | IC50 (Miapaca2 3D spheroids; [3]): 36 nM

Cc1c(N2CCC3(CC2)Cc2ccc(C#CC(=O)N(C)C)cc2[C@H]3N)nc(C)n(-c2cccc(Cl)c2Cl)c1=O [Compound 195]
IC50 [1]: 1 nM | IC50 ([2]; Homo sapiens, MIA PaCa-2, 2 h): 11 nM | IC50 (Miapaca2 3D spheroids; [3]): 30 nM

CN(C)C(=O)C#Cc1ccc2c(c1)[C@@H](N)C1(CCN(c3ncc(Sc4ccnc(N)c4Cl)n4nccc34)CC1)C2 [Compound 196]
IC50 [1]: 3 nM | IC50 ([2]; Homo sapiens, MIA PaCa-2, 2 h): 8 nM | IC50 (Miapaca2 3D spheroids; [3]): 21 nM

COCC#Cc1ccc2c(c1)[C@@H](N)C1(CCN(c3cc(=O)n(-c4ccc(C#N)c(OC)c4F)c(C)n3)CC1)C2 [Compound 197]
IC50 [1]: 3 nM | IC50 ([2]; Homo sapiens, MIA PaCa-2, 2 h): 29 nM | IC50 (Miapaca2 3D spheroids; [3]): 38 nM

CNC(=O)C#Cc1ccc2c(c1)[C@@H](N)C1(CCN(c3nc(C)c(Sc4ccnc(N)c4Cl)nc3CO)CC1)C2 [Compound 199]
IC50 [1]: 1 nM | IC50 ([2]; Homo sapiens, MIA PaCa-2, 2 h): 5 nM | IC50 (Miapaca2 3D spheroids; [3]): 12 nM

CNC(=O)C#Cc1ccc2c(c1)[C@@H](N)C1(CCN(c3cc(=O)n(-c4ccc(F)c(F)c4Cl)c(C)n3)CC1)C2 [Compound 202]
IC50 [1]: 1 nM | IC50 ([2]; 2 hours): 40 nM | IC50 (Miapaca2 3D spheroids; [3]): 46 nM

Cc1nc(Sc2ccnc(N)c2Cl)c(N)nc1N1CCC2(CC1)Cc1ccc(C#CC(=O)N(C)C)cc1[C@H]2N [Compound 203]
IC50 [1]: 2 nM | IC50 ([2]; Homo sapiens, MIA PaCa-2, 2 h): 7 nM | IC50 (Miapaca2 3D spheroids; [3]): 16 nM

COc1nccc(Sc2nc(C)c(N3CCC4(CC3)Cc3ccc(C#CC(=O)N(C)C)cc3[C@H]4N)nc2N)c1Cl [Compound 204]
IC50 [1]: 6 nM | IC50 ([2]; Homo sapiens, MIA PaCa-2, 2 h): 54 nM | IC50 (Miapaca2 3D spheroids; [3]): 121 nM

C#Cc1ccc2c(c1)[C@@H](N)C1(CCN(c3ncc(Sc4ccnc(N)c4Cl)c(N)n3)CC1)C2 [Compound 205]
IC50 [1]: 12 nM | IC50 ([2]; 2 hours): 29 nM | IC50 (Miapaca2 3D spheroids): 68 nM

CC#Cc1ccc2c(c1)[C@@H](N)C1(CCN(c3cc(=O)n(-c4cccc(OC)c4Cl)c(C)n3)CC1)C2 [Compound 206]
IC50 [1]: 3 nM | IC50 ([2]; Homo sapiens, MIA PaCa-2, 2 h): 69 nM | IC50 (Miapaca2 3D spheroids; [3]): 78 nM

CNC(=O)C#Cc1ccc2c(c1)[C@@H](N)C1(CCN(c3nc(N)c(Sc4ccnc(N)n4)nc3C)CC1)C2 [Compound 216]
IC50 [1]: 1 nM | IC50 ([2]; Homo sapiens, MIA PaCa-2, 2 h): 45 nM | IC50 (Miapaca2 3D spheroids; [3]): 28 nM

CCNC(=O)C#Cc1ccc2c(c1)[C@@H](N)C1(CCN(c3nc(N)c(Sc4ccnc(N)c4Cl)nc3C)CC1)C2 [Compound 219]
IC50 [1]: 3 nM | IC50 ([2]; Homo sapiens, MIA PaCa-2, 2 h): 7 nM | IC50 (Miapaca2 3D spheroids; [3]): 6 nM

CNC(=O)C#Cc1ccc2c(c1)[C@@H](N)C1(CCN(c3nc(N)c(Sc4ccnc(N)c4Cl)nc3Cl)CC1)C2 [Compound 222, (S)-3-(1-amino-1′-(6-amino-5-((2-amino-3-chloropyridin-4-yl)thio)-3-chloropyrazin-2-yl)-1,3-dihydrospiro[indene-2,4′-piperidin]-6-yl)-N-methylpropiolamide]
IC50 [1]: 4 nM | IC50 ([2]; Homo sapiens, MIA PaCa-2, 2 h): 6 nM | IC50 (Miapaca2 3D spheroids; [3]): 15 nM

Cc1nc(Sc2ccnc(N)c2Cl)c(N)nc1N1CCC2(CC1)Cc1ccc(C#CC(=O)NC3CC3)cc1[C@H]2N [Compound 225]
IC50 [1]: 2 nM | IC50 ([2]; Homo sapiens, MIA PaCa-2, 2 h): 6 nM | IC50 (Miapaca2 3D spheroids; [3]): 2 nM

CCNC(=O)C#Cc1ccc2c(c1)[C@@H](N)C1(CCN(c3cnc(Sc4ccnc(N)c4Cl)c(N)n3)CC1)C2 [Compound 226]
IC50 [1]: 1 nM | IC50 ([2]; Homo sapiens, MIA PaCa-2, 2 h): 2 nM | IC50 (Miapaca2 3D spheroids; [3]): 0.4 nM

CNC(=O)C#Cc1ccc2c(c1)[C@@H](N)C1(CCN(c3cnc(Sc4ccnc(N)c4Cl)cn3)CC1)C2 [Compound 227]
IC50 [1]: 1 nM | IC50 ([2]; Homo sapiens, MIA PaCa-2, 2 h): 2 nM | IC50 (Miapaca2 3D spheroids; [3]): 0.4 nM
